US20220119354A1, “DIAMINO-SUBSTITUTED PYRIDINES AND PYRIMIDINES AS HERBICIDES” (FMC Corporation, priority 2019, published 2022)

Columns and labels:
Format in all cases: in vivo
kochia (Kochia scoparia) [1] = assay: Test A postemergence, kochia; settings: 0 to 100 scale; for Plant response rating, Kochia: 0 no effect, 100 complete control; for Kochia plant response rating: 0 is no effect, 100 is complete control
Outline: (§1)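 Compound, in a non-phytotoxic solvent blend containing surfactant, is sprayed onto soil immediately after sowing or onto young plants (one- to two-leaf, 2–10 cm). After roughly 10 d under greenhouse conditions, injury is judged by eye relative to untreated plants on a 0–100 control scale.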

[2] = system: ryegrass, Italian (Lolium multiflorum); assay: Test A preemergence, Italian ryegrass; settings: 0 to 100 scale, 0 is no effect, 100 is complete control
Outline: as §1

[3] = system: galium (catchweed bedstraw, Galium aparine); assay: Test A postemergence, galium; settings: 0 to 100 scale; for Plant response rating, Galium: 0 no effect, 100 complete control; for Galium plant response rating: 0 is no effect, 100 is complete control
Outline: as §1

[4] = system: wheat (Triticum aestivum); assay: Test A postemergence, wheat; settings: 0 to 100 scale; for Plant response rating, Wheat: 0 no effect, 100 complete control; for Wheat plant response rating: 0 is no effect, 100 is complete control
Outline: as §1

[5] = system: pigweed (Amaranthus retroflexus); assay: Test A preemergence, pigweed; settings: 0 to 100 scale, 0 is no effect, 100 is complete control
Outline: as §1

[6] = system: ducksalad (Heteranthera limosa); assay: Test B flooded paddy test, ducksalad; settings: Flood, 250 g ai/ha, applied to paddy water, 2-leaf stage, visual evaluation after 13 to 15 d
Outline: (§2)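 Pots flooded to 3 cm above the soil when treated, with test compound added straight to the water and the flood maintained. Treated plants were at the 2-leaf stage and stayed 13–15 d in greenhouse. Response versus untreated controls scored visually from 0 (no effect) to 100 (complete control).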

[7] = system: sedge, umbrella (small-flower umbrella sedge, Cyperus difformis); assay: Test B flooded paddy test, umbrella sedge; settings: Flood, 250 g ai/ha, applied to paddy water, 2-leaf stage, visual evaluation after 13 to 15 d
Outline: as §2

[8] = system: ryegrass, Italian (Lolium multiflorum); assay: Test A postemergence, Italian ryegrass; settings: 0 to 100 scale; for Plant response rating, Ryegrass, Italian: 0 no effect, 100 complete control; for Ryegrass, Italian plant response rating: 0 is no effect, 100 is complete control
Outline: as §1

[9] = system: ragweed (common ragweed, Ambrosia elatior); assay: Test A preemergence, ragweed; settings: 0 to 100 scale, 0 is no effect, 100 is complete control
Outline: as §1

corn (Zea mays) = assay: Test A postemergence, corn; settings: 0 to 100 scale; for Plant response rating, Corn: 0 no effect, 100 complete control; for Corn plant response rating: 0 is no effect, 100 is complete control
Outline: as §1

[10] = system: barnyardgrass (Echinochloa crus-galli); assay: Test A preemergence, barnyardgrass; settings: 0 to 100 scale, 0 is no effect, 100 is complete control
Outline: as §1

[11] = system: barnyardgrass (Echinochloa crus-galli); assay: Test B flooded paddy test, barnyardgrass; settings: Flood, 250 g ai/ha, applied to paddy water, 2-leaf stage, visual evaluation after 13 to 15 d
Outline: as §2

rice (Oryza sativa) = assay: Test B flooded paddy test, rice; settings: Flood, 250 g ai/ha, applied to paddy water, 2-leaf stage, visual evaluation after 13 to 15 d
Outline: as §2

[12] = system: pigweed (Amaranthus retroflexus); assay: Test A postemergence, pigweed; settings: 0 to 100 scale; for Plant response rating, Pigweed: 0 no effect, 100 complete control; for Pigweed plant response rating: 0 is no effect, 100 is complete control
Outline: as §1

kochia (Kochia scoparia) [13] = assay: Test A preemergence, kochia; settings: 0 to 100 scale, 0 is no effect, 100 is complete control
Outline: as §1

[14] = system: barnyardgrass (Echinochloa crus-galli); assay: Test A postemergence, barnyardgrass; settings: 0 to 100 scale; for Plant response rating, Barnyardgrass: 0 no effect, 100 complete control; for Barnyardgrass plant response rating: 0 is no effect, 100 is complete control
Outline: as §1

[15] = system: foxtail, giant (Setaria faberii); assay: Test A preemergence, giant foxtail; settings: 0 to 100 scale, 0 is no effect, 100 is complete control
Outline: as §1

[16] = system: foxtail, giant (Setaria faberii); assay: Test A postemergence, giant foxtail; settings: 0 to 100 scale; for Plant response rating, Foxtail, Giant: 0 no effect, 100 complete control; for Foxtail, Giant plant response rating: 0 is no effect, 100 is complete control
Outline: as §1

[17] = system: blackgrass (Alopecurus myosuroides); assay: Test A postemergence, blackgrass; settings: 0 to 100 scale; for Plant response rating, Blackgrass: 0 no effect, 100 complete control; for Blackgrass plant response rating: 0 is no effect, 100 is complete control
Outline: as §1

[18] = system: ragweed (common ragweed, Ambrosia elatior); assay: Test A postemergence, ragweed; settings: 0 to 100 scale; for Plant response rating, Ragweed: 0 no effect, 100 complete control; for Ragweed plant response rating: 0 is no effect, 100 is complete control
Outline: as §1

| SMILES | Plant response rating, Kochia (kochia (Kochia scoparia) [1]; 125 g ai/ha) | Ryegrass, Italian plant response rating ([2]; 125 g ai/ha) | Plant response rating, Galium ([3]; 125 g ai/ha) | Plant response rating, Wheat ([4]; 125 g ai/ha) | Pigweed plant response rating ([5]; 125 g ai/ha) | Plant response rating, Ducksalad (0 to 100 scale, 0 is no effect, 100 is complete control) [6] | Plant response rating, Sedge, Umbrella (0 to 100 scale, 0 is no effect, 100 is complete control) [7] | Plant response rating, Ryegrass, Italian ([8]; 125 g ai/ha) | Ragweed plant response rating ([9]; 125 g ai/ha) | Plant response rating, Corn (corn (Zea mays); 125 g ai/ha) | Barnyardgrass plant response rating ([10]; 125 g ai/ha) | Plant response rating, Barnyardgrass (0 to 100 scale, 0 is no effect, 100 is complete control) [11] | Plant response rating, Rice (0 to 100 scale, 0 is no effect, 100 is complete control) (rice (Oryza sativa)) | Plant response rating, Pigweed ([12]; 125 g ai/ha) | Kochia plant response rating (kochia (Kochia scoparia) [13]; 125 g ai/ha) | Plant response rating, Barnyardgrass ([14]; 125 g ai/ha) | Foxtail, Giant plant response rating ([15]; 125 g ai/ha) | Plant response rating, Foxtail, Giant ([16]; 125 g ai/ha) | Plant response rating, Blackgrass ([17]; 125 g ai/ha) | Plant response rating, Ragweed ([18]; 125 g ai/ha) | also measured |
| --- | --- | --- | --- | --- | --- | --- | --- | --- | --- | --- | --- | --- | --- | --- | --- | --- | --- | --- | --- | --- | --- |
| CC(C)[C@@H](Nc1ncc(C(F)(F)F)c(N)n1)c1cc2ccccc2s1 [Compound 50] | 20 | 0 | 10 | 0 | 0 | 0 | 0 | 30 | 0 | 0 | 0 | 0 | 0 | 60 | 40 | 0 | 0 | 0 | 0 | 0 | Kochia plant response rating (kochia (Kochia scoparia) [1]; 500 g ai/ha): 60; Ryegrass, Italian plant response rating ([2]; 500 g ai/ha): 0; Galium plant response rating ([3]; 500 g ai/ha): 20; Wheat plant response rating ([4]; 500 g ai/ha): 0; Pigweed plant response rating ([5]; 500 g ai/ha): 40; Ryegrass, Italian plant response rating ([8]; 500 g ai/ha): 0; Ragweed plant response rating ([9]; 500 g ai/ha): 0; Corn plant response rating (corn (Zea mays); 500 g ai/ha): 10; Barnyardgrass plant response rating ([10]; 500 g ai/ha): 10; Pigweed plant response rating ([12]; 500 g ai/ha): 90; Kochia plant response rating (kochia (Kochia scoparia) [13]; 500 g ai/ha): 60; Barnyardgrass plant response rating ([14]; 500 g ai/ha): 0; Foxtail, Giant plant response rating ([15]; 500 g ai/ha): 10; Foxtail, Giant plant response rating ([16]; 500 g ai/ha): 40; Blackgrass plant response rating ([17]; 500 g ai/ha): 0; Ragweed plant response rating ([18]; 500 g ai/ha): 30 |
| CC[C@H](Nc1ncc(C(F)(F)F)c(N)n1)c1coc2ccccc12 [Compound 81] | 20 | 0 | 0 | 0 | 0 | 0 | 0 | 0 | 0 | 0 | 0 | 0 | 0 | 0 | 0 | 0 | 0 | 0 | 0 | 0 | Plant response rating, Kochia (kochia (Kochia scoparia) [1]; 500 g ai/ha): 40; Ryegrass, Italian plant response rating ([2]; 500 g ai/ha): 60; Plant response rating, Galium ([3]; 500 g ai/ha): 30; Plant response rating, Wheat ([4]; 500 g ai/ha): 0; Pigweed plant response rating ([5]; 500 g ai/ha): 10; Plant response rating, Ryegrass, Italian ([8]; 500 g ai/ha): 0; Ragweed plant response rating ([9]; 500 g ai/ha): 70; Plant response rating, Corn (corn (Zea mays); 500 g ai/ha): 0; Barnyardgrass plant response rating ([10]; 500 g ai/ha): 0; Plant response rating, Pigweed ([12]; 500 g ai/ha): 80; Kochia plant response rating (kochia (Kochia scoparia) [13]; 500 g ai/ha): 20; Plant response rating, Barnyardgrass ([14]; 500 g ai/ha): 0; Foxtail, Giant plant response rating ([15]; 500 g ai/ha): 20; Plant response rating, Foxtail, Giant ([16]; 500 g ai/ha): 10; Plant response rating, Blackgrass ([17]; 500 g ai/ha): 0; Plant response rating, Ragweed ([18]; 500 g ai/ha): 20 |
| C[C@@H](Nc1nc(N)c(C(F)(F)F)c(C(F)F)n1)c1cc2ccccc2o1 [Compound 111] | 60 | 0 | 50 | 0 | 70 | 0 | 0 | 0 | 90 | 20 | 0 | 0 | 0 | 80 | 70 | 0 | 10 | 0 | 0 | 50 | Plant response rating, Kochia (kochia (Kochia scoparia) [1]; 31 g ai/ha): 0; Ryegrass, Italian plant response rating ([2]; 31 g ai/ha): 0; Plant response rating, Galium ([3]; 31 g ai/ha): 20; Plant response rating, Wheat ([4]; 31 g ai/ha): 0; Pigweed plant response rating ([5]; 31 g ai/ha): 10; Plant response rating, Ryegrass, Italian ([8]; 31 g ai/ha): 0; Ragweed plant response rating ([9]; 31 g ai/ha): 30; Plant response rating, Corn (corn (Zea mays); 31 g ai/ha): 0; Barnyardgrass plant response rating ([10]; 31 g ai/ha): 0; Plant response rating, Pigweed ([12]; 31 g ai/ha): 50; Kochia plant response rating (kochia (Kochia scoparia) [13]; 31 g ai/ha): 40; Plant response rating, Barnyardgrass ([14]; 31 g ai/ha): 10; Foxtail, Giant plant response rating ([15]; 31 g ai/ha): 0; Plant response rating, Foxtail, Giant ([16]; 31 g ai/ha): 0; Plant response rating, Blackgrass ([17]; 31 g ai/ha): 0; Plant response rating, Ragweed ([18]; 31 g ai/ha): 40 |
| Nc1nc(NC(c2coc3ccccc23)C2CC2)ncc1C(F)(F)F (racemic) [Compound 95] | 80 | 40 | 80 | 0 | 90 | 55 | 70 | 50 | 50 | 10 | 80 | 35 | 0 | 100 | 80 | 0 | 90 | 50 | 0 | 60 | Plant response rating, Kochia (kochia (Kochia scoparia) [1]; 500 g ai/ha): 90; Ryegrass, Italian plant response rating ([2]; 500 g ai/ha): 60; Plant response rating, Galium ([3]; 500 g ai/ha): 80; Plant response rating, Wheat ([4]; 500 g ai/ha): 30; Pigweed plant response rating ([5]; 500 g ai/ha): 100; Plant response rating, Ryegrass, Italian ([8]; 500 g ai/ha): 100; Ragweed plant response rating ([9]; 500 g ai/ha): 100; Plant response rating, Corn (corn (Zea mays); 500 g ai/ha): 30; Barnyardgrass plant response rating ([10]; 500 g ai/ha): 100; Plant response rating, Pigweed ([12]; 500 g ai/ha): 100; Kochia plant response rating (kochia (Kochia scoparia) [13]; 500 g ai/ha): 90; Plant response rating, Barnyardgrass ([14]; 500 g ai/ha): 70; Foxtail, Giant plant response rating ([15]; 500 g ai/ha): 100; Plant response rating, Foxtail, Giant ([16]; 500 g ai/ha): 90; Plant response rating, Blackgrass ([17]; 500 g ai/ha): 70; Plant response rating, Ragweed ([18]; 500 g ai/ha): 80 |
| C[C@H](Nc1ncc(C(F)(F)F)c(N)n1)c1cc2ccc(F)cc2s1 [Compound 47] | 0 | 0 | 0 | 0 | 0 | 0 | 0 | 0 | 0 | 0 | 0 | 0 | 0 | 20 | 0 | 0 | 0 | 0 | 0 | 0 | Kochia plant response rating (kochia (Kochia scoparia) [1]; 500 g ai/ha): 60; Ryegrass, Italian plant response rating ([2]; 500 g ai/ha): 0; Galium plant response rating ([3]; 500 g ai/ha): 0; Wheat plant response rating ([4]; 500 g ai/ha): 0; Pigweed plant response rating ([5]; 500 g ai/ha): 30; Ryegrass, Italian plant response rating ([8]; 500 g ai/ha): 0; Ragweed plant response rating ([9]; 500 g ai/ha): 0; Corn plant response rating (corn (Zea mays); 500 g ai/ha): 0; Barnyardgrass plant response rating ([10]; 500 g ai/ha): 0; Pigweed plant response rating ([12]; 500 g ai/ha): 80; Kochia plant response rating (kochia (Kochia scoparia) [13]; 500 g ai/ha): 0; Barnyardgrass plant response rating ([14]; 500 g ai/ha): 0; Foxtail, Giant plant response rating ([15]; 500 g ai/ha): 0; Foxtail, Giant plant response rating ([16]; 500 g ai/ha): 0; Blackgrass plant response rating ([17]; 500 g ai/ha): 30; Ragweed plant response rating ([18]; 500 g ai/ha): 0 |
